Results: article PMC6747455, “Active Site Architecture and Reaction Mechanism Determination of Cold Adapted β-D-galactosidase from Arthrobacter sp. 32cB” (International Journal of Molecular Sciences, 2019)

Key:
[1] = target: T1, ArthβDG (Arthrobacter sp. 32cB, UniProt A0A023UGN9); test: hydrolysis in crystal, blue coloration; format: biochemical; conditions: 3 to 20 molar excess; blue within 3 min; galactose found in the structure
T1 construct: recombinant, pBAD/Myc-His A vector (pBAD-Bgal32cB), E. coli LMG 194 host; ion exchange and size exclusion; five-domain protein, 110 kDa; functional dimer; GH2 family; catalytic residues E441 and E517

[2] = target: ArthβDG_E441Q mutein (β-D-galactosidase from Arthrobacter sp. 32cB, E441Q) (Arthrobacter sp. 32cB); test: crystal structure; crystals grown in 25–45% Tacsimate, pH 6.0–8.0, seeded; space group P3121, one protein monomer in the asymmetric unit; dimer shown in Figure 2
[3] = target: T1, ArthβDG; test: hydrolysis in crystal, product seen by X-ray; format: biochemical; conditions: crystal soaked 1 min

T1 sequence (A0A023UGN9 1-1010): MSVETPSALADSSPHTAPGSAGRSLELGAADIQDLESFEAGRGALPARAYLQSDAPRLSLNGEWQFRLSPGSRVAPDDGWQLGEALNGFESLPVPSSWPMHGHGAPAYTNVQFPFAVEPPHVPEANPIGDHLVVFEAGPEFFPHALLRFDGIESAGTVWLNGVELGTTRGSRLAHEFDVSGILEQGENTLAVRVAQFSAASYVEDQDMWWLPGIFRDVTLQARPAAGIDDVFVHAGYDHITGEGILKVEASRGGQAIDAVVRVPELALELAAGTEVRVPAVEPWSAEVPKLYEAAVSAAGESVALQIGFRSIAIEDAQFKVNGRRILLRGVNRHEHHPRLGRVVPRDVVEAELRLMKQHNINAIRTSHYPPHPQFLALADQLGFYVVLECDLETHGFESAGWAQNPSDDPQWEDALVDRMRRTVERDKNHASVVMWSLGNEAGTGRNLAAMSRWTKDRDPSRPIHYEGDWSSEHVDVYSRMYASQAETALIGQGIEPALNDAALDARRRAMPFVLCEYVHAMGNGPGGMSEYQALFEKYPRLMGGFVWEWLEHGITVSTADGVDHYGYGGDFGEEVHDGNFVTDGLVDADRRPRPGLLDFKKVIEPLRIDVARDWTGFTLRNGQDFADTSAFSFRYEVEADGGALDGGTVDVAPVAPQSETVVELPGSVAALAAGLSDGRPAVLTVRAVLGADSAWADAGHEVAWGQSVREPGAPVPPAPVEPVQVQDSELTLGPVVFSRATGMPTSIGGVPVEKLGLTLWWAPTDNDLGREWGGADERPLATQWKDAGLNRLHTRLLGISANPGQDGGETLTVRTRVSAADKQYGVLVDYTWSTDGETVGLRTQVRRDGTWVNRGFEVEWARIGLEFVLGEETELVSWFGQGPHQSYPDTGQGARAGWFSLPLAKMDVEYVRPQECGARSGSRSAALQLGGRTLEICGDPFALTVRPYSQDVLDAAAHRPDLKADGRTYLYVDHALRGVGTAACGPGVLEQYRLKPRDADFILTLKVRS

OC[C@H]1O[C@@H](Oc2c[nH]c3ccc(Br)c(Cl)c23)[C@H](O)[C@@H](O)[C@H]1O [X-gal, 5-bromo-4-chloro-3-indolyl-β-D-galactopyranoside]
hydrolysis in crystal, blue coloration [1]: the enzyme in the crystal was in its active form and performed hydrolysis of X-gal

ArthβDG_E441Q mutein (β-D-galactosidase from Arthrobacter sp. 32cB, E441Q) (enzyme)
stoichiometry N [2]: 2

OC[C@H]1O[C@@H](O[C@H]2[C@H](O)[C@@H](O)C(O)O[C@@H]2CO)[C@H](O)[C@@H](O)[C@H]1O (stereo partly drawn) [LAC, lactose]
hydrolysis in crystal, product seen by X-ray [3]: the active enzyme performed hydrolysis of lactose in crystal
